Reference: patent US20050209244A1, “N{5-[4-(4-methyl-piperazino-methyl)-benzoylamido]-2-methylphenyl}-4-(3-pyridyl)-2-pyrimidine-amine coated stents” (priority 2002, published 2005)

How the values were obtained:
[1] = target: Jak-2 (Homo sapiens, UniProt O60674); conditions: cited from earlier work
[2] = target: c-Met (Homo sapiens, UniProt P08581); conditions: cited from earlier work
[3] = tested on: neointimal lesion formation; test: 28 day rat carotid artery balloon injury model; assay type: in vivo; conditions: for percent inhibition of neointimal lesion formation: 28 days post-balloon injury
Procedure: Compounds of formula I are tested in the following rat model.
Rats are dosed orally with placebo or a compound of formula 1. Daily dosing starts 3 days prior to surgery and continues for 31 days. Rat carotid arteries are balloon injured using a method described by Clowes et al., Lab. Invest. 1983;49;208-215. Following sacrifice at 28 days post-balloon Injury, carotid arteries are removed and processed for histologic and morphometric evaluation.

[4] = target: Tek (Homo sapiens, UniProt Q02763); conditions: cited from earlier work
Sequence of Tek (Q02763 23-1124, species assumed): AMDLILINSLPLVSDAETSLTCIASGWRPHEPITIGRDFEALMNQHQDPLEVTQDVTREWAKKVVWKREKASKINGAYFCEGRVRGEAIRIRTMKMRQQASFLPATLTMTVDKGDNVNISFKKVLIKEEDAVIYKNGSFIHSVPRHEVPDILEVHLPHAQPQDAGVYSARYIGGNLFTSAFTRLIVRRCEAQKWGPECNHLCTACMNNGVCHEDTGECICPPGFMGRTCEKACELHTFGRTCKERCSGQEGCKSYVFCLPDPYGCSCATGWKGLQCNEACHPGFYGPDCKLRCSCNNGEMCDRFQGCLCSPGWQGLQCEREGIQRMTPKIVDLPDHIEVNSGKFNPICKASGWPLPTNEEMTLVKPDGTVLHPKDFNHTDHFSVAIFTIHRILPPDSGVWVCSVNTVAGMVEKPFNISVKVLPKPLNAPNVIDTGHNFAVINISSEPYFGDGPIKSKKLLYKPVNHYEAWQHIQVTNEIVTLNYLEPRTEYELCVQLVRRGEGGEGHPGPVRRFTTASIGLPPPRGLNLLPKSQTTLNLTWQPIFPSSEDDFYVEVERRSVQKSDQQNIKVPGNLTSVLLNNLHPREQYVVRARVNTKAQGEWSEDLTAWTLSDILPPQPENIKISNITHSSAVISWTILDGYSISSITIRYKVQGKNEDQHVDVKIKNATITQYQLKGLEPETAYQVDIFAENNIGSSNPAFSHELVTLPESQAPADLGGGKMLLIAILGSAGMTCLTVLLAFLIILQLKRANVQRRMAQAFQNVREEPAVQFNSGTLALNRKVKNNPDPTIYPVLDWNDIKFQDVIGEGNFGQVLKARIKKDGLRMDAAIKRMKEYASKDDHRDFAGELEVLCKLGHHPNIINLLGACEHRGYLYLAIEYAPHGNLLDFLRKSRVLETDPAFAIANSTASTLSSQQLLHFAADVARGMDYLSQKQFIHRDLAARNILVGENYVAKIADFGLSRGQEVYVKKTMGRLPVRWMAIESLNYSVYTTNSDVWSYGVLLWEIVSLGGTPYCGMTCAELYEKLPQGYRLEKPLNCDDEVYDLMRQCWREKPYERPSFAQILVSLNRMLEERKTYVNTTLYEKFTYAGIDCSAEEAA

[5] = target: α-PDGF receptor (Homo sapiens, UniProt P16234); conditions: cited from earlier work
Sequence of α-PDGF receptor (P16234 24-1089): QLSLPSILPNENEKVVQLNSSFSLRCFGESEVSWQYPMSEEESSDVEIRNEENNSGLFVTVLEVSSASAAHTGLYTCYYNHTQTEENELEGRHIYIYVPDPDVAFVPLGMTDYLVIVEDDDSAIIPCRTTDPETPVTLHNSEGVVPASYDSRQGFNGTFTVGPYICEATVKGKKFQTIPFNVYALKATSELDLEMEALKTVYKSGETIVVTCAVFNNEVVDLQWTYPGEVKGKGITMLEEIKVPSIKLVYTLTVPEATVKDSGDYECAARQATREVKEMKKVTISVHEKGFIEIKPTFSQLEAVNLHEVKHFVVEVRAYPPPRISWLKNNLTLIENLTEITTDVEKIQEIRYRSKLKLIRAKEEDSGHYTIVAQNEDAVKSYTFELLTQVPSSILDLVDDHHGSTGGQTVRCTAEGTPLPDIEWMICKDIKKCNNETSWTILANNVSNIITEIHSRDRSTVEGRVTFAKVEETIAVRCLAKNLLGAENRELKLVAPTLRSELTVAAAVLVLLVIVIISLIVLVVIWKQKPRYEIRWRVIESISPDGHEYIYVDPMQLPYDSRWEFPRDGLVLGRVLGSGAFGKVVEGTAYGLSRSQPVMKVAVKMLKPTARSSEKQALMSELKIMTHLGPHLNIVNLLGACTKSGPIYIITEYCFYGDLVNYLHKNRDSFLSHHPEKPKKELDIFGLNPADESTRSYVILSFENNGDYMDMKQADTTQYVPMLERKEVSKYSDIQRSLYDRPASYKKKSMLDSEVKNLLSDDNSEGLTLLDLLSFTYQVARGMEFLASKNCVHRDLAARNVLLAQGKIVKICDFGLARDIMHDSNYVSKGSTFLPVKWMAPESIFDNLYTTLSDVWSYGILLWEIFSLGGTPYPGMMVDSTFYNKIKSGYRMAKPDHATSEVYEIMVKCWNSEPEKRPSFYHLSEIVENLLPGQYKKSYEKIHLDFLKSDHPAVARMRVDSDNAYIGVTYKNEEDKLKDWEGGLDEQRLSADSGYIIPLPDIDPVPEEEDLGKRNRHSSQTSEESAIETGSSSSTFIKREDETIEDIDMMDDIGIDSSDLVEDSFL

[6] = target: β-PDGF receptor (Homo sapiens, UniProt P09619); conditions: cited from earlier work
[7] = target: Flt-1 (Homo sapiens, UniProt P17948); conditions: cited from earlier work
Sequence of Flt-1 (P17948 27-1338, species assumed): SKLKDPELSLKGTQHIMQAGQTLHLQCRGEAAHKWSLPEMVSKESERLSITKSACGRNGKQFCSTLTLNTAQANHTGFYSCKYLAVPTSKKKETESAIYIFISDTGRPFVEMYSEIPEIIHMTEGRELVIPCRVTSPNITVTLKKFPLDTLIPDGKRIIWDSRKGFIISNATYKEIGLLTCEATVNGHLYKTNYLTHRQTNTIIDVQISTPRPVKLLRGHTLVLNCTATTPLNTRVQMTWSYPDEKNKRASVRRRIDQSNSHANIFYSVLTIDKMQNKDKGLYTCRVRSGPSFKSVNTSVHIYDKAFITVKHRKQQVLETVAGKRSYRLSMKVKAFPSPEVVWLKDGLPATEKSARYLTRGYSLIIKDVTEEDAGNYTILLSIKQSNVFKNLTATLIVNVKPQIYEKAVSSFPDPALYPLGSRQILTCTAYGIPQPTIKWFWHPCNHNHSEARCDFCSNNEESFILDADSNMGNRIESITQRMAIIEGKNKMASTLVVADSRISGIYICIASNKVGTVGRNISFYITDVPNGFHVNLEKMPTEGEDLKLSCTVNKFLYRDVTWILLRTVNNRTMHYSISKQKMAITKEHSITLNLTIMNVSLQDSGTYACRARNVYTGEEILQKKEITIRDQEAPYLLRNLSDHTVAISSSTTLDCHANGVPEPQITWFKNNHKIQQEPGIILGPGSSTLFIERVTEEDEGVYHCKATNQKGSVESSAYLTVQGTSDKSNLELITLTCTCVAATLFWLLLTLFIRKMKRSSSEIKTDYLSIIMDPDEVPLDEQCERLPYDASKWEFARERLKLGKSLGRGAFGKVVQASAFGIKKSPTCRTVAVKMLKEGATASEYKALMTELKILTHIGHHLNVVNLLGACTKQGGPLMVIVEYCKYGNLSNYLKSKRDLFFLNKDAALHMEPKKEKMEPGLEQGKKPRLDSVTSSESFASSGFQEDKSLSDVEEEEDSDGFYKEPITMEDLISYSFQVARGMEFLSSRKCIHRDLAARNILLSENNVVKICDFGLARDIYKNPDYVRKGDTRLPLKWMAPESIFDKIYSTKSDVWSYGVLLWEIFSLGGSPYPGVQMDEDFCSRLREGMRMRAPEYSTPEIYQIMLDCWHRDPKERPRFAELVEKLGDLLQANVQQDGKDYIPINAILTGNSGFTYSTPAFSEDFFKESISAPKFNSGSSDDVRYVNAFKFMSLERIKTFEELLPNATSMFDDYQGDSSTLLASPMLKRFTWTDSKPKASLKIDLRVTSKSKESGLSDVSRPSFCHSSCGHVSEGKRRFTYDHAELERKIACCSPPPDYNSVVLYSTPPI

[8] = target: receptor for stem cell factor (Homo sapiens, UniProt P10721); conditions: cited from earlier work
[9] = target: T1, Flt-3 (Homo sapiens, UniProt P36888); conditions: cited from earlier work
T1 sequence (P36888 27-993): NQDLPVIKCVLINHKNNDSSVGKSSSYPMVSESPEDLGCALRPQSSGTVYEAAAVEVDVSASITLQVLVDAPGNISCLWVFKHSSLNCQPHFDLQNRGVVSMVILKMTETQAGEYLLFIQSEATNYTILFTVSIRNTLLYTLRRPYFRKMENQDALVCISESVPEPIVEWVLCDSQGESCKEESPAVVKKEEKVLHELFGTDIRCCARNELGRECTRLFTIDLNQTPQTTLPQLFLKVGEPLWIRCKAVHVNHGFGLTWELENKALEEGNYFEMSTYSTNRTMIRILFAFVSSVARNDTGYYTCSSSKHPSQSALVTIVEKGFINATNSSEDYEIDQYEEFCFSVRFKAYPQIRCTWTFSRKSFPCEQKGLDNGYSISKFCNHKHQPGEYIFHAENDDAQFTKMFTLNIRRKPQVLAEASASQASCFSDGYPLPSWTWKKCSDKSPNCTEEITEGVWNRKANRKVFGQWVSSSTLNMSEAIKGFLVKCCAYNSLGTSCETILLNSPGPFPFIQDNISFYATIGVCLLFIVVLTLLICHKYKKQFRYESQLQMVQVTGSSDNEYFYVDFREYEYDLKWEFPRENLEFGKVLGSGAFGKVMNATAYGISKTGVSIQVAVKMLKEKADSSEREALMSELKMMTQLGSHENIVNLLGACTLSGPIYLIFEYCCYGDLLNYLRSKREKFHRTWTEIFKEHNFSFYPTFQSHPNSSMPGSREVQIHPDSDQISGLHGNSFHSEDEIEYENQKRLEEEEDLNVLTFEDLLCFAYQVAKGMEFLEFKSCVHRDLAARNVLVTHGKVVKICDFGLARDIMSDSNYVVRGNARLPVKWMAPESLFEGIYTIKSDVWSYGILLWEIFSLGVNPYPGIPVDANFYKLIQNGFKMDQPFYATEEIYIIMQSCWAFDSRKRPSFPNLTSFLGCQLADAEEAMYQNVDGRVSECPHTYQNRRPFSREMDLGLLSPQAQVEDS

[10] = target: Kdr (Homo sapiens, UniProt P35968); conditions: cited from earlier work
[11] = tested on: platelet-derived growth factor (PDGF) receptor; conditions: in vitro; cited from earlier work
[12] = tested on: restenotic lesion formation; test: Rabbit iliac stent model, restenosis at 28 days; assay type: in vivo, New Zealand White rabbit
Procedure: A combined angioplasty and stenting procedure is performed in New Zealand White rabbit iliac arteries. Iliac artery balloon injury is performed by inflating a 3.0×9.0 mm angioplasty balloon in the mid-portion of the artery followed by “pull-back” of the catheter for 1 balloon length. Balloon injury is repeated 2 times, and a 3.0×12 mm stent is deployed at 6 atm for 30 seconds in the iliac artery. Balloon injury and stent placement is then performed on the contralateral iliac artery in the same manner. A post-stent deployment angiogram is performed. All animals receive oral aspirin 40 mg/day daily as anti-platelet therapy and are fed standard low-cholesterol rabbit chow. Twenty-eight days after stenting, animals are anesthetized and euthanized and the arterial tree is perfused at 100 mmHg with lactated Ringer's for several minutes, then perfused with 10% formalin at 100 mmHg for 15 minutes. The vascular section between the distal aorta and the proximal femoral arteries is excised and cleaned of periadventitial tissue. The stented section of artery is embedded in plastic and sections are taken from the proximal, middle, and distal portions of each stent. All sections are stained with hematoxylin-eosin and Movat pentachrome stains. Computerized planimetry is performed to determine the area of the internal elastic lamina (IEL), external elastic lamina (EEL) and lumen. The neointima and neointimal thickness is measured both at and between the stent struts. The vessel area is measured as the area within the EEL. Data are expressed as mean±SEM. Statistical analysis of the histologic data is accomplished using analysis of variance (ANOVA) due to the fact that two stented arteries are measured per animal with a mean generated per animal. A P<0.05 is considered statistically significant.
COMPOUND is administered orally by gavage at 30 mg/kg once daily from 3 days prior to stenting until day 27 post-stenting. […] There is extensive neointimal formation in placebo-treated animals at 28 days, with the lesions consisting of abundant smooth muscle cells in proteoglycan/collagen matrix and apparent full endothelial healing. In arterial segments from the animals treated with COMPOUND I, the Intima is well healed, characterized by a compact neointima consisting of smooth muscle cells and endothelium fully covering the lumen surface both over stent struts and between struts.

[13] = in conjunction with COMPOUND I
Source text: Data points just spanning the IC50 of the agents alone or in combination are entered into the CalcuSyn program (CalcuSyn, Biosoft, Cambridge UK).

[14] = 30 mg/kg orally once daily, 28 days after stenting

Sequence of Jak-2 (O60674 whole entry, species assumed): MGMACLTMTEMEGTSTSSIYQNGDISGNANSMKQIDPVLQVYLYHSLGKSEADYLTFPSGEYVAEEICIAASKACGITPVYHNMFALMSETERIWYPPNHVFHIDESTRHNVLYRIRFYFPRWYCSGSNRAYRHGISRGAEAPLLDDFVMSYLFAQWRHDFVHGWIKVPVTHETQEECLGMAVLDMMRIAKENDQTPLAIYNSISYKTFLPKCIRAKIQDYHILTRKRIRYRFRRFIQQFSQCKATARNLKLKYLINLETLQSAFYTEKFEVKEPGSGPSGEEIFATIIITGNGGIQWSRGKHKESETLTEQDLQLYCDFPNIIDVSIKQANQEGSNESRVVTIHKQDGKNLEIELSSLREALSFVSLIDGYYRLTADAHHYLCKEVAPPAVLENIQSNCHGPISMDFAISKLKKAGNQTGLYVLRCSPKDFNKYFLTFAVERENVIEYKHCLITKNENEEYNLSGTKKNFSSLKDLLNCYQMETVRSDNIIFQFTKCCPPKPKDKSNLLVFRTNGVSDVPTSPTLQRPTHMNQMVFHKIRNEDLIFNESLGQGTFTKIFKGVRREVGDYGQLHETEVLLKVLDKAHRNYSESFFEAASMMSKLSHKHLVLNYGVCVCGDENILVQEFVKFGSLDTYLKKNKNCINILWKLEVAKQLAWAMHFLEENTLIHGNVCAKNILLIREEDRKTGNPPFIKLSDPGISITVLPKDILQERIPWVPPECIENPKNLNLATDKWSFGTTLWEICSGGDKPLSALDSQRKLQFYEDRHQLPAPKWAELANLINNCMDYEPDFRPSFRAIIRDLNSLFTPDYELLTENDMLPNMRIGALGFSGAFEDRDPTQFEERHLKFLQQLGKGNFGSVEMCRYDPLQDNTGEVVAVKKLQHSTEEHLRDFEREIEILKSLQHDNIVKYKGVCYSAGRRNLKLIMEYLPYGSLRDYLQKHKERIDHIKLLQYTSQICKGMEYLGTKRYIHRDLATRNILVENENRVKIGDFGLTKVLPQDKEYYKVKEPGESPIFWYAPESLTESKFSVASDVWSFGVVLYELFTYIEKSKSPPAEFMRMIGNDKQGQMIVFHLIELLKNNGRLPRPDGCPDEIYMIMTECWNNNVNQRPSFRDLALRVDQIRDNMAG

Cc1ccc(NC(=O)c2ccc(CN3CCN(C)CC3)cc2)cc1Nc1nccc(-c2cccnc2)n1 [COMPOUND I, N-{5-[4-(4-methyl-piperazino-methyl)-benzoylamido]-2-methylphenyl}-4-(3-pyridyl)-2-pyrimidine-amine]
inhibition of Jak-2 [1]: no inhibition | inhibition of c-Met [2]: no inhibition | percent inhibition of neointimal lesion formation ([3]; 0.5 mg/kg oral daily): 17% | percent inhibition of neointimal lesion formation ([3]; 2.0 mg/kg oral daily): 37% | neointimal lesion formation at 28 days following balloon injury ([3]; oral daily, dose of from 0.2 to 3.5 mg, preferably 0.5 to 2.0 mg/kg): significantly reduce | inhibition of kinase activity of Tek [4]: not | inhibition of kinase activity of α-PDGF receptor [5]: potently inhibit | inhibition of kinase activity of β-PDGF receptor [6]: potently inhibit | inhibition of kinase activity of Flt-1 [7]: not | inhibition of kinase activity of the receptor for stem cell factor [8]: potently inhibit | inhibition of kinase activity of Flt-3 [9]: not | inhibition of kinase activity of Kdr [10]: not | inhibition of PDGF receptor tyrosine kinase [11]: selectively inhibits | EEL area compared with control [12, 14]: did not result in differences | intima healing in arterial segments [12, 14]: well healed | reduction in average neointimal thickness ([12]; 30 mg/kg orally once daily, 28 days after stenting, vs placebo, P<0.0001): 29% | reduction in percent arterial stenosis ([12]; 30 mg/kg orally once daily, 28 days after stenting, vs placebo, P<0.0002): 17% | reduction in neointimal area ([12]; 30 mg/kg orally once daily, 28 days after stenting, vs placebo, P<0.04): 17% | fibrin deposit ([12]; rabbit iliac arteries, in-stent): reduced

CC(=O)O[C@H]1C(=O)[C@@]2(C)[C@H]([C@H](OC(=O)c3ccccc3)[C@]3(O)C[C@H](OC(=O)[C@H](O)[C@@H](NC(=O)c4ccccc4)c4ccccc4)C(C)=C1C3(C)C)[C@]1(OC(C)=O)CO[C@@H]1C[C@@H]2O [Taxol, taxol]
interaction with COMPOUND I in combination [13]: Slight synergism or synergy

CC[C@]1(O)C[C@@H]2CN(CCc3c([nH]c4ccccc34)[C@@](C(=O)OC)(c3cc4c(cc3OC)N(C)[C@H]3[C@@](O)(C(=O)OC)[C@H](OC(C)=O)[C@]5(CC)C=CCN6CC[C@]43[C@@H]65)C2)C1 [Vinblastine, vinblastine]
interaction with COMPOUND I in combination [13]: Slight synergism or synergy

COc1cccc2c1C(=O)c1c(O)c3c(c(O)c1C2=O)C[C@@](O)(C(=O)CO)C[C@@H]3O[C@H]1C[C@H](N)[C@H](O)[C@H](C)O1 [doxorubicin]
interaction with COMPOUND I in combination [13]: Slight synergism or synergy
